Results taken from patent US7838674B2, “Tetracyclic lactame derivatives” (Novartis AG, priority 2007, dated 2010).
Where a name gives a salt, the structure may show the parent alone.

target: T1, MAPKAPK2 enzyme (HIS-MK2, Invitrogen PV4019) (Homo sapiens, UniProt P49137); experiment: Alternative MAPKAPK2 assay (Caliper microfluidic mobility shift, HSP27-peptide); format: biochemical; details: HIS-MK2 0.013 nM, ATP 10 μM, 60 min at 30° C.
T1 construct: His; purchased Invitrogen PV4019
T1 sequence (P49137 whole entry): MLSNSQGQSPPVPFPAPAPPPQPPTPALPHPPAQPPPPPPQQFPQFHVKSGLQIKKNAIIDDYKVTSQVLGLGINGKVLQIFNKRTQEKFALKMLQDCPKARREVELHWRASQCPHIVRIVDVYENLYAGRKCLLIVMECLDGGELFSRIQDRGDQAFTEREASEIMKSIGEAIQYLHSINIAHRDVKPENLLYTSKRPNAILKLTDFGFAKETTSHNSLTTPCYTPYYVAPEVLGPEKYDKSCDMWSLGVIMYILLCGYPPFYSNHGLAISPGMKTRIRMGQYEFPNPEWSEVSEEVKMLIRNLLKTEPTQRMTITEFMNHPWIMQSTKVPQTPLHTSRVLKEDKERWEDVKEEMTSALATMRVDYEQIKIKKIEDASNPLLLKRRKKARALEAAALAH

Row | SMILES | IC50 [nM]
1 | CN1CCOc2cc(-c3cc4c(cn3)CCc3c-4[nH]c4c3C(=O)NCC43CC3)ccc21 [Example 130, 2-(1-Aminomethyl-cyclopropyl)-8-(4-methyl-3,4-dihydro-2H-benzo[1,4]oxazin-7-yl)-4,5-dihydro-1H-pyrrolo[2,3-f]isoquinoline-3-carboxylic acid lactam] | 45
2 | COc1ccc(-c2ncc3c(n2)-c2c(c4c(n2C)CC2(CNC2)NC4=O)CC3)cc1 [Example 131, 2-(3-Amino-azetidin-3-ylmethyl)-8-(4-methoxy-phenyl)-1-methyl-4,5-dihydro-1H-1,7,9-triaza-cyclopenta[a]naphthalene-3-carboxylic acid lactam hydrochloride] | 6
3 | Cn1c2c(c3c1-c1cc(-c4cncc(-c5ccccc5F)c4)ncc1CC3)C(=O)NC1(CNC1)C2 [Example 135, 2-(3-Amino-azetidin-3-ylmethyl)-8-[5-(2-fluoro-phenyl)-pyridin-3-yl]-1-methyl-4,5-dihydro-1H-pyrrolo[2,3-f]isoquinoline-3-carboxylic acid lactam hydrochloride] | 32
4 | COc1cccc(-c2ncc3c(n2)-c2c(c4c(n2C)CC2(CNC2)NC4=O)CC3)c1 [Example 137, 2-(3-Amino-azetidin-3-ylmethyl)-8-(3-methoxy-phenyl)-1-methyl-4,5-dihydro-1H-1,7,9-triaza-cyclopenta[a]naphthalene-3-carboxylic acid lactam hydrochloride] | 49
5 | Cn1c2c(c3c1-c1nc(-c4ccc(Br)cc4)ncc1CC3)C(=O)NC1(CNC1)C2 [Example 139, 2-(3-Amino-azetidin-3-ylmethyl)-8-(4-bromo-phenyl)-1-methyl-4,5-dihydro-1H-1,7,9-triaza-cyclopenta[a]naphthalene-3-carboxylic acid lactam hydrochloride] | 18
6 | COc1cncc(-c2cc3c(cn2)CCc2c4c(n(C)c2-3)CC2(CNC2)NC4=O)c1 [Example 140, 2-(3-Amino-azetidin-3-ylmethyl)-8-(5-methoxy-pyridin-3-yl)-1-methyl-4,5-dihydro-1H-pyrrolo[2,3-f]isoquinoline-3-carboxylic acid lactam hydrochloride] | 12
7 | COc1ccc(-c2cc3c(cn2)CCc2c4c(n(C)c2-3)CC2(CNC2)NC4=O)cn1 [Example 141, 2-(3-Amino-azetidin-3-ylmethyl)-8-(6-methoxy-pyridin-3-yl)-1-methyl-4,5-dihydro-1H-pyrrolo[2,3-f]isoquinoline-3-carboxylic acid lactam hydrochloride] | 17
8 | COc1ccc(-c2cc3c(cn2)CCc2c4c(n(C)c2-3)CC2(CNC2)NC4=O)cc1OC [Example 144, 2-3-Amino-azetidin-3-ylmethyl)-8-(3,4-dimethoxy-phenyl)-1-methyl-4,5-dihydro-1H-pyrrolo[2,3-f]isoquinoline-3-carboxylic acid lactam hydrochloride] | 58
9 | CN1CCOc2cc(-c3cc4c(cn3)CCc3c5c(n(C)c3-4)CC3(CNC3)NC5=O)ccc21 [Example 145, 2-(3-Amino-azetidin-3-ylmethyl)-1-methyl-8-(4-methyl-3,4-dihydro-2H-benzo[1,4]oxazin-7-yl)-4,5-dihydro-1H-pyrrolo[2,3-f]isoquinoline-3-carboxylic acid lactam hydrochloride] | 29
10 | CN(C)c1ccc(-c2cc3c(cn2)CCc2c4c(n(C)c2-3)CC2(CNC2)NC4=O)cn1 [Example 147, 2-(3-Amino-azetidin-3-ylmethyl)-8-(6-dimethylamino-pyridin-3-yl)-1-methyl-4,5-dihydro-1H-pyrrolo[2,3-f]isoquinoline-3-carboxylic acid lactam hydrochloride] | 89
11 | Cn1c2c(c3c1-c1cc(-c4ccc5c(c4)OCCO5)ncc1CC3)C(=O)NC1(CNC1)C2 [Example 148, 2-(3-Amino-azetidin-3-ylmethyl)-8-(2,3-dihydro-benzo[1,4]dioxin-6-yl)-1-methyl-4,5-dihydro-1H-pyrrolo[2,3-f]isoquinoline-3-carboxylic acid lactam hydrochloride] | 15
12 | Cc1ccc(-c2cc3c(cn2)CCc2c4c(n(C)c2-3)CC2(CN(C)C2)NC4=O)cn1 [Example 150, 2-(3-Amino-1-methyl-azetidin-3-ylmethyl)-8-(6-methyl-pyridin-3-yl)-1-methyl-4,5-dihydro-1H-pyrrolo[2,3-f]isoquinoline-3-carboxylic acid lactam] | 92
13 | Cc1ccc(-c2cc3c(cn2)CCc2c4c(n(C)c2-3)CC2(CNC2)NC4=O)cn1 [Example 151, 2-(3-Amino-azetidin-3-ylmethyl)-8-(6-methyl-pyridin-3-yl)-1-methyl-4,5-dihydro-1H-pyrrolo[2,3-f]isoquinoline-3-carboxylic acid lactam hydrochloride] | 35
14 | O=C1NCC2(CNC2)c2[nH]c3c(c21)CCc1cnc(-c2ccc(Oc4ccc(F)cc4F)nc2)cc1-3 [Example 154, 2-(3-Aminomethyl-azetidin-3-yl)-8-[6-(2,4-difluoro-phenoxy)-pyridin-3-yl]-4,5-dihydro-1H-pyrrolo[2,3-f]isoquinoline-3-carboxylic acid lactam] | < 3
15 | Cc1ccc(-c2cc3c(cn2)CCc2c-3[nH]c3c2C(=O)NC2(CC2)C3)c(F)n1 [Example 158, 2-(1-Amino-cyclopropylmethyl)-8-(2-fluoro-6-methyl-pyridin-3-yl)-4,5-dihydro-1H-pyrrolo[2,3-f]isoquinoline-3-carboxylic acid lactam] | 51
16 | O=C1NCC2(CNC2)c2[nH]c3c(c21)CCc1cnc(-c2ccc(F)nc2)cc1-3 [Example 160, 2-(3-Aminomethyl-azetidin-3-yl)-8-(6-fluoro-pyridin-3-yl)-4,5-dihydro-1H-pyrrolo[2,3-f]isoquinoline-3-carboxylic acid lactam hydrochloride] | < 3
17 | CN1CC2(CNC(=O)c3c4c(n(C)c32)-c2cc(-c3ccc(F)nc3)ncc2CC4)C1 [Example 161, 2-(3-Aminomethyl-1-methyl-azetidin-3-yl)-8-(6-fluoro-pyridin-3-yl)-1-methyl-4,5-dihydro-1H-pyrrolo[2,3-f]isoquinoline-3-carboxylic acid lactam] | 86
18 | Cn1c2c(c3c1C1(CNC1)CNC3=O)CCc1cnc(-c3ccc(F)nc3)cc1-2 [Example 162, 2-(3-Aminomethyl-azetidin-3-yl)-8-(6-fluoro-pyridin-3-yl)-1-methyl-4,5-dihydro-1H-pyrrolo[2,3-f]isoquinoline-3-carboxylic acid lactam hydrochloride] | 20

The next lines start with the values.

Row | IC50 [nM] | SMILES
19 | 14 | Cn1c2c(c3c1-c1cc(-c4cccc(C#N)c4)ncc1CC3)C(=O)NC1(CNC1)C2 [Example 132, 2-(3-Amino-azetidin-3-ylmethyl)-8-(3-cyano-phenyl)-1-methyl-4,5-dihydro-1H-pyrrolo[2,3-f]isoquinoline-3-carboxylic acid lactam hydrochloride]
20 | 18 | Cn1c2c(c3c1-c1cc(-c4cccc(F)c4)ncc1CC3)C(=O)NC1(CNC1)C2 [Example 133, 2-(3-Amino-azetidin-3-ylmethyl)-8-(3-fluoro-phenyl)-1-methyl-4,5-dihydro-1H-pyrrolo[2,3-f]isoquinoline-3-carboxylic acid lactam hydrochloride]
21 | 20 | Cn1c2c(c3c1-c1cc(-c4ccc(F)nc4)ncc1CC3)C(=O)NC1(CNC1)C2 [Example 134, 2-(3-Amino-azetidin-3-ylmethyl)-8-(6-fluoro-pyridin-3-yl)-1-methyl-4,5-dihydro-1H-pyrrolo[2,3-f]isoquinoline-3-carboxylic acid lactam hydrochloride]
22 | 23 | Cn1c2c(c3c1-c1cc(-c4cncc(-c5ccc(F)cc5)c4)ncc1CC3)C(=O)NC1(CNC1)C2 [Example 136, 2-(3-Amino-azetidin-3-ylmethyl)-8-[5-(4-fluoro-phenyl)-pyridin-3-yl]-1-methyl-4,5-dihydro-1H-pyrrolo[2,3-f]isoquinoline-3-carboxylic acid lactam hydrochloride]
23 | 34 | COc1ccc(-c2cc3c(cn2)CCc2c4c(n(C)c2-3)CC2(CN(C)C2)NC4=O)cn1 [Example 142, 2-(3-Amino-1-methyl-azetidin-3-ylmethyl)-8-(6-methoxy-pyridin-3-yl)-1-methyl-4,5-dihydro-1H-pyrrolo[2,3-f]isoquinoline-3-carboxylic acid lactam]
24 | 69 | COc1cc(OC)cc(-c2cc3c(cn2)CCc2c4c(n(C)c2-3)CC2(CNC2)NC4=O)c1 [Example 143, 2-(3-Amino-azetidin-3-ylmethyl)-8-(3,5-dimethoxy-phenyl)-1-methyl-4,5-dihydro-1H-pyrrolo[2,3-f]isoquinoline-3-carboxylic acid lactam hydrochloride]
25 | 45 | Cn1c2c(c3c1-c1cc(-c4cccc(N5CCOCC5)c4)ncc1CC3)C(=O)NC1(CNC1)C2 [Example 146, 2-(3-Amino-azetidin-3-ylmethyl)-8-(3-morpholin-4-yl-phenyl)-1-methyl-4,5-dihydro-1H-pyrrolo[2,3-f]isoquinoline-3-carboxylic acid lactam hydrochloride]
26 | 23 | Cn1c2c(c3c1-c1cc(-c4ccc(N5CCCCC5)nc4)ncc1CC3)C(=O)NC1(CNC1)C2 [Example 149, 2-(3-Amino-azetidin-3-ylmethyl)-8-(6-piperidinyl-pyridin-3-yl)-1-methyl-4,5-dihydro-1H-pyrrolo[2,3-f]isoquinoline-3-carboxylic acid lactam hydrochloride]
27 | 15 | Cn1c2c(c3c1-c1cc(-c4ccncc4)ncc1CC3)C(=O)NC1(CNC1)C2 [Example 152, 2-(3-Amino-azetidin-3-ylmethyl)-8-(pyridin-4-yl)-1-methyl-4,5-dihydro-1H-pyrrolo[2,3-f]isoquinoline-3-carboxylic acid lactam hydrochloride]
28 | 17 | Cn1c2c(c3c1-c1cc(-c4cccnc4)ncc1CC3)C(=O)NC1(CNC1)C2 [Example 153, 2-(3-Amino-azetidin-3-ylmethyl)-8-(pyridin-3-yl)-1-methyl-4,5-dihydro-1H-pyrrolo[2,3-f]isoquinoline-3-carboxylic acid lactam hydrochloride]
